The values below come from PMC4322352, “Sirtinol Inhibits Neutrophil Elastase Activity and Attenuates Lipopolysaccharide-Mediated Acute Lung Injury in Mice” (Scientific Reports, 2015).

This experiment addresses T1, human neutrophil elastase (HNE) (Homo sapiens, UniProt P08246).
T1 construct: gene ELANE
T1 sequence (P08246 30-247): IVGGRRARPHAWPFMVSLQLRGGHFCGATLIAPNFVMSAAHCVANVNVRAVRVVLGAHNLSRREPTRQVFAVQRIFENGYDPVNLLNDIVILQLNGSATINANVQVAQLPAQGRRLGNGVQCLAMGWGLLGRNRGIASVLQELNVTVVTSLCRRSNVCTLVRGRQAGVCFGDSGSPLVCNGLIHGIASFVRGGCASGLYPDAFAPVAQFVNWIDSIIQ
The experiment in a line: chromogenic enzymatic assay with purified HNE, absorbance at […] nm. It is filed as biochemical.

The compound `CC(NC(=O)c1ccccc1/N=C/c1c(O)ccc2ccccc12)c1ccccc1` (stereo not shown) [Sirtinol, 2-[(2-hydroxynaphthalen-1-ylmethylene)amino]-N-(1-phenethyl) benzamide] showed an IC50 of 8.4 ± 0.53 µM.
